Assay results reported in patent US9717806B2, “Method for detecting cancer using ICG fluorescence method” (Osaka Prefectural Hospital Organization, priority 2008, dated 2017).

Legend:
Format in all cases: in vivo, human
hepatocellular carcinoma [1] = assay: Intraoperative ICG fluorescence detection of accessory lesions with infrared camera system PDE, primary liver cancer; conditions: for confirmation of HCC areas by intraoperative PDE diagnosis: identification of main tumor by intraoperative ultrasonography was difficult
Protocol: (§1) Now the method of detecting an accessory cancer lesion using the accessory cancer lesion detector illustrated in FIG. 1 is described. First, the fluorescent dye indocyanine green is injected intravenously. After the lapse of a certain time (typically 1 to 10 days from the intravenous injection), when excitation light 10 of a certain wavelength (760 nm for instance) is irradiated on the target organ 20 from the excitation light source unit 2, a fluorescence image 11 in the near-infrared wavelength band is emitted by the accessory cancer lesion because of the indocyanine green. Here, the optical filter 3 allows the passage of the fluorescence image 11 while cutting off the reflected light coming from the target organ 20 that is being irradiated by the excitation light 10.
(§2) The fluorescence image 11 that passes through the optical filter 3 is captured by the CCD camera used as the imager 4, and the data of the observed image is output from the CCD camera to the controller 5. The controller 5 controls the brightness and contrast of the observed image coming from the imager 4. As a result, the observed image 15 (which includes the image of the main cancer lesion) containing the accessory cancer lesion image 16 is generated. […] Furthermore, if necessary, the observed image 15 is recorded on a recording medium in the image recorder 7.
(§3) In the examples 1 to 5 given below, the ICG (0.5 mg/kg) was injected intravenously a few days before the surgery. In other words, in the examples 1, 2, 3, 4, and 5, the intravenous ICG injection was administered, respectively, 4, 4, 8, 1, and 4 days before the surgery. […] In examples 1 to 4, the cancer was primary liver cancer, and in Example 5 it was metastatic liver cancer.

metastatic liver cancer = assay: Intraoperative ICG fluorescence detection of accessory lesions with infrared camera system PDE, metastatic liver cancer; conditions: Example 5, person; ICG 0.5 mg/kg intravenously 4 days before surgery; S4 segment of the liver; histology: adenocarcinoma, metastasis of colon cancer into the liver
Protocol: as §1
as §2, with “7. […]” for “7.”

hepatocellular carcinoma [2] = assay: PDE observation of cross-sections of resected, formalin-fixed liver slices after ICG injection; conditions: Example 4, ICG 0.5 mg/kg intravenously 1 day before surgery, 3 mm thick slices, areas diagnosed as highly differentiated HCC
Protocol: as §3
Example 4 was a case of a person. Preoperative contrast CT detected the presence of a single HCC, 25 mm in diameter, in the S5 segment of the liver. FIG. 6A is an image showing the result of contrast CT. The arrow indicates the HCC. […] FIG. 6B is a near-infrared fluorescence intensity distribution image (measured after the abdomen was opened but before the resection) from ICG in the liver. The fluorescent area indicated by the arrow at left is the main tumor area (main lesion), and the two arrows (arrowheads) on the right indicate fluorescent areas (accessory lesions), 3 mm in diameter, observed around the main tumor. Based on the above measurements, more than one fluorescent area (accessory lesions), each 3 mm in diameter, were resected in addition to the main tumor (main lesion). Further, the resected liver was fixed in formalin and made into 3 mm thick slices (FIG. 6C and FIG. 6G), and the cross-sections observed with the PDE (FIG. 6D and FIG. 6H). […]

## CC1(C)C(/C=C/C=C/C=C/C=C2\N(CCCCS(=O)(=O)O)c3ccc4ccccc4c3C2(C)C)=[N+](CCCCS(=O)(=O)[O-])c2ccc3ccccc3c21 [ICG, indocyanine green]
Hepatocellular carcinoma [1]; Example 1, person, ICG 0.5 mg/kg intravenously 4 days before surgery, S4 segment of the liver, not detected by contrast CT, histology: highly differentiated HCC
  diameter of fluorescent area (accessory lesion) detected in addition to the main tumor: 5 mm
Hepatocellular carcinoma [1]; Example 3, person, ICG 0.5 mg/kg intravenously 8 days before surgery, S5 segment of the liver, histology: slightly less differentiated HCC than the main tumor
  diameter of fluorescent area (accessory lesion): 5 mm
Hepatocellular carcinoma [1]; Example 3, ICG 0.5 mg/kg intravenously 8 days before surgery
  confirmation of HCC areas by intraoperative PDE diagnosis: could confirm the HCC areas (main and accessory lesions) as fluorescent areas
Hepatocellular carcinoma [1]; Example 4, person, ICG 0.5 mg/kg intravenously 1 day before surgery, histology: highly differentiated HCC
  diameter of fluorescent areas (accessory lesions) observed around the main tumor: 3 mm
Hepatocellular carcinoma [1]; Example 4, ICG 0.5 mg/kg intravenously 1 day before surgery
  confirmation of HCC areas by intraoperative PDE diagnosis: could confirm the HCC areas (main and accessory lesions) as fluorescent areas
Metastatic liver cancer
  diameter of fluorescent area (accessory lesion) detected apart from the two lesions identified before the surgery: 5 mm
Hepatocellular carcinoma [2]
  near-infrared fluorescence in cross-sections of resected liver: light emission from areas where no nodule was detected macroscopically
